Legend:
[1] = system: HCT8 enterocyte and HT29-MTX goblet cell lines; test: Oris Cell Migration assay (epithelial cell wound healing); format: cell-based, human; conditions: 48 hours; SG-11 (SEQ ID NO:5 or SEQ ID NO:9) 1 μg/ml, EGF 30 ng/ml, staurosporine 100 nM; FIG. 2
Excerpt: The 96 well Oris Cell Migration assay containing plugs preventing cell attachment in the center of each well was used according to the manufacturer's instructions (Platypus Technologies, Madison, Wis.). The migration assay plates were warmed to room temperature prior to use and plugs were removed from 100% confluence wells prior to cell addition. The HCT8 enterocyte and HT29-MTX goblet cell lines were used at a 9:1 ratio with a total of 5×10^4 total cells added per well (4.5×10^4 HCT8 cells and 0.5×10^4 HT29-MTX cells). Cells were incubated at 37° C.+5% CO2 for 24 hours. Plugs were then removed from all control and sample wells. Control wells included cells treated with the diluent vehicle as the blank, 30 ng/ml epidermal growth factor (EGF) as the positive control, and 100 nM staurosporine as the negative control, all diluted in cRPMI. Sample wells contained SG-11 protein (SEQ ID NO:9) at a concentration of 1 μg/ml diluted in cRPMI. 100% and 0% wells were cultured in cRPMI. […] The green fluorescent viability dye […] was added to all wells at a concentration of 0.5 μg/ml in PBS containing 0.9 mM CaCl2 and 0.5 mM MgCl2, incubated for 30 min at 37° C.+5% CO2, the dye was removed and cells were washed in PBS containing 0.9 mM CaCl2 and 0.5 mM MgCl2 and fluorescence was measured. […] Samples were normalized between 100% and 0% samples and values expressed as a percent growth.

[2] = system: C57BL/6 mice given 2.5% DSS in drinking water; test: Therapeutic DSS model of inflammatory bowel disease, treatment after 7 days DSS (Example 5, Example 13B); format: in vivo, mouse
Protocol: In this example, experiments were performed to study the effects of SG-11 in the DSS mouse model when the SG-11 protein is administered to the mice after DSS treatment for 7 days. This differs from the treatment regimen of Example 4 above in which mice were administered SG-11 protein shortly before treatment with DSS.
Eight-week-old male C57BL/6 mice were housed 5 animals per cage and given food and water ad libitum for seven days. Following a 7-day acclimation period, the mice were provided with drinking water containing 2.5% DSS for 7 days. Fresh 2.5% DSS water was prepared every 2 days during the 7 day DSS administration. For this therapeutic DSS study, SG-11 used to treat the animals was fused at its N-terminus to a FLAG Tag (DYKDDDDK; SEQ ID NO:32).
On day 7 normal drinking water was restored and i.p. treatments of 50 nmole/kg of SG-11 (1.3 mg/kg) or Gly2-GLP2 (0.2 mg/kg) were initiated. Treatments were administered twice a day (b.i.d.), with a morning and evening dose (every 8 and 16 hours) for six days.
Body weight was measured daily during the morning treatment. The colon tissue was then harvested and length was measured in centimeters and the tissue was weighed. Fecal material was flushed from the colon and residual PBS removed by gently running the colon tissue through a pair of forceps. The colon tissue was then weighed and colon weight to length ratio in mg/mm was determined. Following weight measurements proximal and distal colon tissue was banked for RNA and protein analysis and the remaining tissues was fixed in 10% neutral buffered formalin for histopathology. Statistical analysis was performed by a one-way ANOVA compared to DSS+vehicle for serum 4KDa-FITC translocation, serum LBP concentrations, colon length, and colon weight to length ratio, while a two-way ANOVA was performed for analysis of body weight. In all analysis, a Fisher's LSD test for multiple comparisons was used. Graphs represent data pooled from two experiments, and are plotted as mean±SEM.
Histopathology analysis was performed on proximal and distal colon tissues from the therapeutic DSS model described above. Proximal (FIG. 13A) and distal (FIG. 13B) colon scores (range 0-4) are presented and as well as the total score for the colon which represents the sum of proximal and distal colon scores (Range 0-8) (FIG. 13C). LMA=Loss of mucosal architecture, Edema=Edema, INF=Inflammation, TMI=Transmural inflammation, MH=Mucosal hyperplasia, DYS=Dysplasia. Graphs represent data pooled from two independent experiments, and are plotted as mean±SEM. Statistical analysis was performed by a one-way ANOVA compared to DSS+vehicle followed by a Fisher's LSD test for multiple comparisons.
In the second experiment (Example 13B), mice were provided with drinking water containing 2.5% DSS for 7 days. On day 7 normal drinking water was restored and i.p. treatments of 50 nmole/kg of SG-11 (SEQ ID NO:7) (1.3 mg/kg), SG-11V5 (SEQ ID NO:19) (1.3 mg/kg), or Gly2-GLP2 (0.2 mg/kg) were initiated. […]
At the end of each DSS model study, mice were fasted for 4 hours and then orally gavaged with 600 mg/kg 4KDa dextran labeled with fluorescein isothiocyanate (FITC) [4KDa-FITC]. One hour after the 4KDa-FITC gavage mice were euthanized, blood was collected and FITC signal was measured in serum. […]
Upon completion of the DSS models above, LBP levels were measured as an inflammation centric readout of barrier function following the protocol detailed in Example 5. […]

[3] = system: C57BL/6 mice given 2.5% DSS in drinking water; test: Concurrent (prophylactic) DSS model of inflammatory bowel disease (Example 4, Example 13A); format: in vivo, mouse; conditions: 50 nmoles/kg i.p. b.i.d.
[4] = mouse, in vivo, ip
[5] = Example 5, colon tissue, vs DSS+vehicle, FIG. 13

## epidermal growth factor [EGF, positive control in the wound healing assay]
[1]
  Percent growth (epithelial cell wound healing, proliferation): increasing proliferation

## Gly2-GLP2: stable analog of glucagon-like peptide 2 (GLP2), positive control (HGDGSFSDEMNTILDNLAARDFINWLIQTKITD; Glucagon-like peptide 2; UniProt P01275 146-178, looked up, variant A2G) [reference compound]
[2]; Example 5, 50 nmole/kg i.p. b.i.d. for six days after 7 days DSS, FIG. 10
  LBP in serum: no reduction in LBP
[2]; [5]
  Histopathology: inflammation and transmural inflammation scores: no change
  Histopathology: loss of mucosal architecture score: modest, but significant, reduction
[2]; Example 13B, 50 nmole/kg, vs DSS+vehicle, p<0.01, FIG. 23B
  Colon weight to length ratio: did not
[2]; treatment after 7 days DSS, 50 nmole/kg i.p. b.i.d. for six days, FLAG-tagged SG-11
  4KDa-FITC intestinal permeability readout and serum LBP: no significant effects
[3]; FIG. 8A
  Colon length: significant improvement in colon length
[3]; FIG. 8B
  Colon weight to length ratio: significant improvement in colon weight to length ratios

## CN[C@@H]1C[C@H]2O[C@@](C)([C@@H]1OC)n1c3ccccc3c3c4c(c5c6ccccc6n2c5c31)C(=O)NC4 [staurosporine]
[1]
  Percent growth (epithelial cell wound healing, proliferation): suppressing cell proliferation

## fluorescently labeled bovine serum albumin: tracer protein used in preliminary tracking studies after i.p. injection
[4]
  Time at which protein reached the colon after i.p. delivery: 6 h
